How the values were obtained:
[1] = tested on: human lung cancer NCI-H1581 transplanted tumor; assay: Tumor growth inhibition in tumor-bearing mice (subcutaneously transplanted tumor); format: in vivo, BALB/cA nude mice; settings: for T/C (%): 13th day; for TV (mm^3, mean ± SD) d0: d0, before dosing
Experimental: Before using, the compound was diluted with 5% Tween80 in normal saline to the desired concentration (light yellow suspension), and was prepared once a week.
Before using, the compound was diluted with 1% Tween 80 in normal saline to the desired concentration (white suspension), and was prepared once a week.
The cell strain was inoculated in the right axilla of the nude mice, and the amount of cells inoculated was 5×10^6/animal to form transplanted tumor, and passaged in vivo in nude mice by 1 generation before use.
The tumor tissue in the vigorous growth period was cut into 1.5 mm^3, and inoculated subcutaneously in the right axilla of the nude mice under aseptic conditions. The diameter of the subcutaneously transplanted in a nude mice was measured with a vernier caliper, and the animals were randomly grouped when the average volume of tumors was about 220 mm^3. […] The solvent control group was given an equal amount of normal saline. The diameter of the transplanted tumor was measured twice a week during the entire experiment, and the body weights of the mice were weighed. The calculation formula of tumor volume (TV) is: TV=1/2×a×b2, where a and b respectively represent the length and width of the tumor. The relative tumor volume (RTV) was calculated based on the measured results and the formula was: RTV=Vt/V0. Where V0 is the tumor volume measured before grouping and dosing (d0), and Vt is the tumor volume at each measurement.

[2] = target: T1, FGFR1 (Homo sapiens, UniProt P11362); assay: FGFR kinase inhibitory activity experiment (ELISA, Poly(Glu,Tyr)4:1 substrate); format: biochemical; settings: kinase recombinant protein FGFR1, ATP 5 μM
T1 construct: The reaction was initiated by addition of FGFR kinase domain recombinant protein diluted with 49 μL of reaction buffer; purchased Millipore 14-482
Experimental: Precision electronic balance (Sartotius, Cat. No. BP210D), adjustable wavelength microplate reader (Molecular Device, Cat. No. SpectraMax 190).
After the liquid was removed from the wells, the plate was washed for three times with 200 μL/well of T-PBS (PBS containing 0.1% Tween-20) for 5 minutes each time. The enzyme plate was dried at 37° C. in a dryer for 1-2 hours.
50 μL ATP solution diluted with reaction buffer (50 mM HEPES pH 7.4, 50 mM MgCl2, 0.5 mM MnCl2, 0.2 mM Na3VO4, 1 mM DTT) was added into each well at a 5 μM final concentration. The compounds were diluted to appropriate concentration in DMSO, 1 μL/well or containing the corresponding concentrations of DMSO (negative control wells). The reaction was initiated by addition of FGFR kinase domain recombinant protein diluted with 49 μL of reaction buffer. Two control wells without enzyme were set in each experiment. The plate was placed on a shaker (100 rpm) at 37° C. for 1 hour. The plate was washed with T-PBS for three times. 100 μL/well of primary antibody PY99 dilution was added, and incubated at 37° C. for 0.5 hour on a shaker (100 rpm). The plate was washed with T-PBS for three times. 100 μL/well of horseradish peroxidase-labeled secondary anti-goat anti-mouse IgG dilution was added and incubated at 37° C. for 0.5 hour on a shaker (100 rpm). The plate was washed with T-PBS for three times. 100 μL/well of 2 mg/mL OPD coloration solution (diluted with 0.1 M citric acid-sodium citrate buffer containing 0.03% H2O2 (pH=5.4)) was added, and incubated in darkness for 1-10 minutes at 25° C. The reaction was quenched with 50 μL/well 2M H2SO4, and read at 490 nm using a tunable microplate microplate reader SPECTRA MAX 190.
The inhibition ratio of the sample was determined by the following formula: […]
(§1) The IC50 values were obtained by four-parameter regression analysis using the software supplied with the microplate reader.

[3] = tested on: Human acute myeloid leukemia cell line KG1; assay: FGFR-dependent tumor cell proliferation inhibition activity test (CCK-8, 72 h); format: cell-based; settings: Homo sapiens, KG-1, KG1 cells
Excerpt: Human acute myeloid leukemia cell line KG1 (FGFR1 fusion protein expressed in the cytoplasm, FGFR1-dependent tumor cell line) (ATCC, Cat. No. CCL-246), cell culture medium RPMI-1640 (Corning Cellgro, No. 10-040-CVR), fetal bovine serum (Life
Technologies, Cat. No. 10099-141) was purchased from the company; CCK-8 cell counting kit (DOJINDO, Cat. No. FK808). Adjustable wavelength microplate reader (Molecular Device, Cat. No. SpectraMax 190).
The inhibitory effect of the compound on KG1 proliferation was detected by CCK-8 Cell Counting Kit (Dojindo): Logarithmic growth phase cells were seeded in 96-well culture plate in appropriate density, 90 ul for each well. After cultured overnight, different concentrations of drugs were added and incubated for 72 h, while solvent control well was set (negative control). After the cells were treated by the compound for 72 h, 10 μL of CCK-8 reagent was added to each well. After incubated for 2-4 hours in a 37 □ incubator, the plate was read with SpectraMax 190 microplate reader at wavelength 450 nm.
The inhibition rate of compounds against cell proliferation is calculated by the following formula:
Inhibition rate (%)=(OD negative control well-OD administration well)/OD negative control well×100%.
as §1

[4] = AZD4547 12.5 mg/kg po qd/13, d13

T1 sequence (P11362 478-767 limits assumed): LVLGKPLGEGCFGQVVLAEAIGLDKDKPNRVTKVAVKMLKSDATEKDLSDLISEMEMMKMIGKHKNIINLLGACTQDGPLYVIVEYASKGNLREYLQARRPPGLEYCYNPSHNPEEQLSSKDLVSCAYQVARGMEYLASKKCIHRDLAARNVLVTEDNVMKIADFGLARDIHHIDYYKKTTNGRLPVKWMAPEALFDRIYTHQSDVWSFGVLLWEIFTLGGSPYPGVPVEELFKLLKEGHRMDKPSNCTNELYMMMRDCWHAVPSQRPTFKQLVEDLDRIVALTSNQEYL

Compound	IC50 [2]	IC50 [3]	further results
AZD4547 [reference compound]			growth of subcutaneously transplanted tumors (in words) ([1]; 12.5 mg/kg orally once a day for 13 days): partially inhibited; T/C (%) ([1]; AZD4547 12.5 mg/kg po qd/13): 16.39%; TV (mm^3, mean ± SD) d0 ([1]; AZD4547 12.5 mg/kg po qd/13): 153 ± 50 mm^3; RTV (mean ± SD) [1, 4]: 3.43 ± 2.61; TV (mm^3, mean ± SD) d13 [1, 4]: 517 ± 392 mm^3
Cc1ccc2oc(-c3c4c(N)n[nH]c(=O)c4nn3C3CCN(C(=O)/C=C/CN(C)C)CC3)c(C)c2c1 [Compound A30, 4-amino-2-{1-[(2E)-4-(dimethylamino)but-2-enoyl]piperidin-4-yl}-3-(3,5-dimethyl-1-benzofuran-2-yl)-2,6-dihydro-7H-pyrazolo[3,4-d]pyridazin-7-one]	< 100 nM	≤ 100 nM	
Cc1ccc2oc(-c3c4c(N)n[nH]c(=O)c4nn3-c3ccc(NCN(C)C)cc3)c(C)c2c1 [Compound A9, 4-amino-3-(3,5-dimethyl-1-benzofuran-2-yl)-2-(4-{[(dimethylamino)methyl]amino}phenyl)-2,6-dihydro-7H-pyrazolo[3,4-d]pyridazin-7-one]	< 100 nM	100 to 1000 nM	
Cc1ccc2oc(-c3c4c(N)n[nH]c(=O)c4nn3-c3ccc(Cl)cc3)c(C)c2c1 [Compound A13, 4-amino-2-(4-chlorophenyl)-3-(3,5-dimethyl-1-benzofuran-2-yl)-2,6-dihydro-7H-pyrazolo[3,4-d]pyridazin-7-one]	< 100 nM	100 to 1000 nM	
Cc1c(-c2c3c(N)n[nH]c(=O)c3nn2-c2ccc(NC(=O)/C=C/CN(C)C)cc2)oc2ccc(Cl)cc12 [Compound A26, (2E)-N-{4-[4-amino-3-(5-chloro-3-methyl-1-benzofuran-2-yl)-7-carbonyl-6,7-dihydro-2H-pyrazolo[3,4-d]pyridazin-2-yl]phenyl}-4-(dimethylamino)but-2-enamide]		≤ 100 nM	growth of subcutaneously transplanted tumors (in words) ([1]; 50 mg/kg and 10 mg/kg intraperitoneally once a day for 13 days): significantly inhibited; T/C (%) ([1]; A26 10 mg/kg ip qd/13): 19.88%; body weight (g) d0 ([1]; A26 10 mg/kg ip qd/13): 18.4 g; TV (mm^3, mean ± SD) d0 ([1]; A26 10 mg/kg ip qd/13): 161 ± 71 mm^3; RTV (mean ± SD) ([1]; A26 10 mg/kg ip qd/13, d13): 4.17 ± 2.49; TV (mm^3, mean ± SD) d13 ([1]; A26 10 mg/kg ip qd/13, d13): 621 ± 289 mm^3; body weight (g) d13 ([1]; A26 10 mg/kg ip qd/13, d13): 21.3 g; T/C (%) ([1]; A26 50 mg/kg ip qd/13): 2.20%; body weight (g) d0 ([1]; A26 50 mg/kg ip qd/13): 18.2 g; TV (mm^3, mean ± SD) d0 ([1]; A26 50 mg/kg ip qd/13): 159 ± 69 mm^3; RTV (mean ± SD) ([1]; A26 50 mg/kg ip qd/13, d13): 0.46 ± 0.19; TV (mm^3, mean ± SD) d13 ([1]; A26 50 mg/kg ip qd/13, d13): 66 ± 21 mm^3
Cc1ccc2oc(-c3c4c(N)n[nH]c(=O)c4nn3-c3ccc(NC(=O)/C=C/CN4CCC4)cc3)c(C)c2c1 [Compound A27, (2E)-N-{4-[4-amino-3-(3,5-dimethyl-1-benzofuran-2-yl)-7-carbonyl-6,7-dihydro-2H-pyrazolo[3,4-d]pyridazin-2-yl]phenyl}-4-(azetidin-1-yl)but-2-enamide]	< 100 nM	≤ 100 nM	
CCC(=O)N1CCC(n2nc3c(=O)[nH]nc(N)c3c2-c2oc3ccc(C)cc3c2C)CC1 [Compound A10, 4-amino-3-(3,5-dimethyl-1-benzofuran-2-yl)-2-(1-propionylpiperidin-4-yl)-2,6-dihydro-7H-pyrazolo[3,4-d]pyridazin-7-one]	< 100 nM	100 to 1000 nM	
C=CC(=O)N1CCC(n2nc3c(=O)[nH]nc(N)c3c2-c2oc3ccc(C)cc3c2C)CC1 [Compound A29, 2-(1-acryloylpiperidin-4-yl)-4-amino-3-(3,5-dimethyl-1-benzofuran-2-yl)-2,6-dihydro-7H-pyrazolo[3,4-d]pyridazin-7-one]	< 100 nM	≤ 100 nM	
Cc1c(-c2c3c(N)n[nH]c(=O)c3nn2-c2ccccc2)oc2ccc(Cl)cc12 [Compound A7, 4-amino-3-(5-chloro-3-methyl-1-benzo-furan-2-yl)-2-phenyl-2,6-dihydro-7H-pyrazolo[3,4-d]pyridazin-7-one]	< 100 nM	100 to 1000 nM	

The next lines start with results.

IC50 [2]	IC50 [3]	Compound	further results
< 100 nM	≤ 100 nM	C=CC(=O)N1CCC(n2nc3c(=O)[nH]nc(N)c3c2-c2oc3cc(F)ccc3c2C)CC1 [Compound A83, 2-(1-acryloylpiperidin-4-yl)-4-amino-3-(6-fluoro-3-methylbenzofuran-2-yl)-2,6-dihydro-7H-pyrazole[3,4-d]pyridazine-7-one]	
< 100 nM	≤ 100 nM	C=CC(=O)N1CCCC(n2nc3c(=O)[nH]nc(N)c3c2-c2oc3ccc(OC)cc3c2C)C1 (centres unmarked) [Compound A79, 2-(1-acryloylpiperidin-3-yl)-4-amino-3-(5-methoxy-3-methylbenzofuran-2-yl)-2,6-dihydro-7H-pyrazolo[3,4-d] pyridazin-7-one]	
< 100 nM	100 to 1000 nM	Cc1ccc2oc(-c3c4c(N)n[nH]c(=O)c4nn3C3CCC(NC(=O)CN(C)C)CC3)c(C)c2c1 (centres unmarked) [Compound A35, N-{4-[4-amino-3-(3,5-dimethyl-1-benzo-furan-2-yl)-7-carbonyl-6,7-dihydro-2H-pyrazolo[3,4-d]pyridazin-2-yl]cyclohexyl}-N,N-dimethylglycinamide]	
< 100 nM	≤ 100 nM	C=CC(=O)N1CCC(n2nc3c(=O)[nH]nc(N)c3c2-c2oc3ccc(C)cc3c2C)C1 (centres unmarked) [Compound A51, 2-(1-acryloylpyrrolidin-3-yl)-4-amino-3-(3,5-dimethyl-1-benzofuran-2-yl)-2,6-dihydro-7H-pyrazolo[3,4-d]pyridazin-7-one]	
< 100 nM	≤ 100 nM	C=CC(=O)N1CCC(n2nc3c(=O)[nH]nc(N)c3c2-c2oc3ccc(Cl)cc3c2C)CC1 [Compound A86, 2-(1-acryloylpiperidin-4-yl)-4-amino-3-(5-chloro-3-methylbenzofuran-2-yl)-2,6-dihydro-7H-pyrazolo[3,4-d]pyridazin-7-one]	
100 to 1000 nM	100 to 1000 nM	C=CC(=O)N1CCC(n2nc3c(=O)[nH]nc(N)c3c2-c2oc3ccc(F)cc3c2C)CC1 [Compound A80, 2-(1-acryloylpiperidin-4-yl)-4-amino-3-(5-fluoro-3-methylbenzofuran-2-yl)-2,6-dihydro-7H-pyrazolo[3,4-d]pyridazin-7-one]	

— patent publication US20190135818A1 (SHANGHAI INSTITUTE OF MATERIA MEDICA, CHINESE ACADEMY OF …, priority 2016, published 2019)
